{
  "source": "PubChem BioAssay AID1963849",
  "about": "(Molecular Pharmacology Branch, DTP, NCI, 2024);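 further: spheroids exposed to drugs for one week before measurement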;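 on viability, T/C: percent viability relative to DMSO vehicle control taken as 100%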",
  "tested_on": "299254-011-R-J1-PDC complex spheroid viability",
  "experiment": "Anticancer human tumor 299254-011-R-J1-PDC patient-derived melanoma cell line growth inhibition [POLQ]",
  "details": "for IC50: curve of first compound; for viability, T/C: stronger effect = lower value",
  "in_short": "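Complex spheroid viability model combining PDC tumour cells with endothelial (HUVEC) and MSC stromal cells. Novobiocin, ART-558 or RP6685 were tested singly and in combination with standard and investigational anticancer drugs. Each was titrated in half-log steps from near clinical Cmax, or from 10 microM where Cmax was unknown.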",
  "key": {"[1]": {"details": "second compound 0.0316 µM, first compound 0.0316 µM"}, "[2]": {"details": "second compound 0.0316 µM, first compound 0.1 µM"}, "[3]": {"details": "second compound 0.0316 µM, first compound 0.316 µM"}, "[4]": {"details": "second compound 0.0316 µM, first compound 1 µM"}, "[5]": {"details": "second compound 0.0316 µM, first compound 3.16 µM"}, "[6]": {"details": "second compound 0.0316 µM, first compound 10 µM"}, "[7]": {"details": "second compound 0.1 µM, first compound 0.0316 µM"}, "[8]": {"details": "second compound 0.1 µM, first compound 0.1 µM"}, "[9]": {"details": "second compound 0.1 µM, first compound 0.316 µM"}, "[10]": {"details": "second compound 0.1 µM, first compound 1 µM"}, "[11]": {"details": "second compound 0.1 µM, first compound 3.16 µM"}, "[12]": {"details": "second compound 0.1 µM, first compound 10 µM"}, "[13]": {"details": "second compound 0.316 µM, first compound 0.0316 µM"}, "[14]": {"details": "second compound 0.316 µM, first compound 0.1 µM"}, "[15]": {"details": "second compound 0.316 µM, first compound 0.316 µM"}, "[16]": {"details": "second compound 0.316 µM, first compound 1 µM"}, "[17]": {"details": "second compound 0.316 µM, first compound 3.16 µM"}, "[18]": {"details": "second compound 0.316 µM, first compound 10 µM"}, "[19]": {"details": "second compound 1 µM, first compound 0.0316 µM"}, "[20]": {"details": "second compound 1 µM, first compound 0.1 µM"}, "[21]": {"details": "second compound 1 µM, first compound 0.316 µM"}, "[22]": {"details": "second compound 1 µM, first compound 1 µM"}, "[23]": {"details": "second compound 1 µM, first compound 3.16 µM"}, "[24]": {"details": "second compound 1 µM, first compound 10 µM"}, "[25]": {"details": "second compound 3.16 µM, first compound 0.0316 µM"}, "[26]": {"details": "second compound 3.16 µM, first compound 0.1 µM"}, "[27]": {"details": "second compound 3.16 µM, first compound 0.316 µM"}, "[28]": {"details": "second compound 3.16 µM, first compound 1 µM"}, "[29]": {"details": "second compound 3.16 µM, first compound 3.16 µM"}, "[30]": {"details": "second compound 3.16 µM, first compound 10 µM"}, "[31]": {"details": "second compound 10 µM, first compound 0.0316 µM"}, "[32]": {"details": "second compound 10 µM, first compound 0.1 µM"}, "[33]": {"details": "second compound 10 µM, first compound 0.316 µM"}, "[34]": {"details": "second compound 10 µM, first compound 1 µM"}, "[35]": {"details": "second compound 10 µM, first compound 3.16 µM"}, "[36]": {"details": "second compound 10 µM, first compound 10 µM"}},
  "data": [
    {"smiles": "COc1cc(C2c3cc4c(cc3C(OC3OC5COC(C)OC5C(O)C3O)C3COC(=O)C23)OCO4)cc(OC)c1O", "note": "(centres undefined) + Cc1cccc(N(C)C(=O)C2C(O)CCN2c2nc(C)cc(C(F)(F)F)c2C#N)c1", "values": [
      {"measurement": "IC50", "setting": "second compound 0.0316 µM", "value": 9540, "unit": "nM"},
      {"measurement": "IC50", "setting": "second compound 0.1 µM", "value": "> 10000", "unit": "nM"},
      {"measurement": "IC50", "setting": "second compound 0.316 µM", "value": "> 10000", "unit": "nM"},
      {"measurement": "IC50", "setting": "second compound 1 µM", "value": "> 10000", "unit": "nM"},
      {"measurement": "IC50", "setting": "second compound 3.16 µM", "value": "> 10000", "unit": "nM"},
      {"measurement": "IC50", "setting": "second compound 10 µM", "value": "> 10000", "unit": "nM"},
      {"measurement": "viability, T/C", "setting": "[1]", "value": 87.6, "unit": "%"},
      {"measurement": "viability, T/C", "setting": "[2]", "value": 89.2, "unit": "%"},
      {"measurement": "viability, T/C", "setting": "[3]", "value": 102, "unit": "%"},
      {"measurement": "viability, T/C", "setting": "[4]", "value": 86.8, "unit": "%"},
      {"measurement": "viability, T/C", "setting": "[5]", "value": 75.6, "unit": "%"},
      {"measurement": "viability, T/C", "setting": "[6]", "value": 48.9, "unit": "%"},
      {"measurement": "viability, T/C", "setting": "[7]", "value": 98, "unit": "%"},
      {"measurement": "viability, T/C", "setting": "[8]", "value": 91.9, "unit": "%"},
      {"measurement": "viability, T/C", "setting": "[9]", "value": 107, "unit": "%"},
      {"measurement": "viability, T/C", "setting": "[10]", "value": 87.2, "unit": "%"},
      {"measurement": "viability, T/C", "setting": "[11]", "value": 68, "unit": "%"},
      {"measurement": "viability, T/C", "setting": "[12]", "value": 54.8, "unit": "%"},
      {"measurement": "viability, T/C", "setting": "[13]", "value": 94.6, "unit": "%"},
      {"measurement": "viability, T/C", "setting": "[14]", "value": 102, "unit": "%"},
      {"measurement": "viability, T/C", "setting": "[15]", "value": 101, "unit": "%"},
      {"measurement": "viability, T/C", "setting": "[16]", "value": 99.5, "unit": "%"},
      {"measurement": "viability, T/C", "setting": "[17]", "value": 70, "unit": "%"},
      {"measurement": "viability, T/C", "setting": "[18]", "value": 59.5, "unit": "%"},
      {"measurement": "viability, T/C", "setting": "[19]", "value": 107, "unit": "%"},
      {"measurement": "viability, T/C", "setting": "[20]", "value": 93.1, "unit": "%"},
      {"measurement": "viability, T/C", "setting": "[21]", "value": 91.6, "unit": "%"},
      {"measurement": "viability, T/C", "setting": "[22]", "value": 79.2, "unit": "%"},
      {"measurement": "viability, T/C", "setting": "[23]", "value": 76, "unit": "%"},
      {"measurement": "viability, T/C", "setting": "[24]", "value": 58, "unit": "%"},
      {"measurement": "viability, T/C", "setting": "[25]", "value": 98.5, "unit": "%"},
      {"measurement": "viability, T/C", "setting": "[26]", "value": 86.5, "unit": "%"},
      {"measurement": "viability, T/C", "setting": "[27]", "value": 88, "unit": "%"},
      {"measurement": "viability, T/C", "setting": "[28]", "value": 97.3, "unit": "%"},
      {"measurement": "viability, T/C", "setting": "[29]", "value": 74.8, "unit": "%"},
      {"measurement": "viability, T/C", "setting": "[30]", "value": 53.9, "unit": "%"},
      {"measurement": "viability, T/C", "setting": "[31]", "value": 84.5, "unit": "%"},
      {"measurement": "viability, T/C", "setting": "[32]", "value": 86.7, "unit": "%"},
      {"measurement": "viability, T/C", "setting": "[33]", "value": 86.1, "unit": "%"},
      {"measurement": "viability, T/C", "setting": "[34]", "value": 82.8, "unit": "%"},
      {"measurement": "viability, T/C", "setting": "[35]", "value": 60.2, "unit": "%"},
      {"measurement": "viability, T/C", "setting": "[36]", "value": 59.2, "unit": "%"}
    ]},
    {"smiles": "COc1cccc2c1C(=O)c1c(O)c3c(c(O)c1C2=O)CC(O)(C(=O)CO)CC3OC1CC(N)C(O)C(C)O1", "note": "(centres undefined) + Cc1cccc(N(C)C(=O)C2C(O)CCN2c2nc(C)cc(C(F)(F)F)c2C#N)c1", "values": [
      {"measurement": "IC50", "setting": "second compound 0.0316 µM", "value": 565, "unit": "nM"},
      {"measurement": "IC50", "setting": "second compound 0.1 µM", "value": 803, "unit": "nM"},
      {"measurement": "IC50", "setting": "second compound 0.316 µM", "value": 763, "unit": "nM"},
      {"measurement": "IC50", "setting": "second compound 1 µM", "value": 670, "unit": "nM"},
      {"measurement": "IC50", "setting": "second compound 3.16 µM", "value": 567, "unit": "nM"},
      {"measurement": "IC50", "setting": "second compound 10 µM", "value": 352, "unit": "nM"},
      {"measurement": "viability, T/C", "setting": "[1]", "value": 111, "unit": "%"},
      {"measurement": "viability, T/C", "setting": "[2]", "value": 77.3, "unit": "%"},
      {"measurement": "viability, T/C", "setting": "[3]", "value": 64.9, "unit": "%"},
      {"measurement": "viability, T/C", "setting": "[4]", "value": 44.1, "unit": "%"},
      {"measurement": "viability, T/C", "setting": "[5]", "value": 12.2, "unit": "%"},
      {"measurement": "viability, T/C", "setting": "[6]", "value": 0.75, "unit": "%"},
      {"measurement": "viability, T/C", "setting": "[7]", "value": 83.7, "unit": "%"},
      {"measurement": "viability, T/C", "setting": "[8]", "value": 75.8, "unit": "%"},
      {"measurement": "viability, T/C", "setting": "[9]", "value": 77.4, "unit": "%"},
      {"measurement": "viability, T/C", "setting": "[10]", "value": 42.9, "unit": "%"},
      {"measurement": "viability, T/C", "setting": "[11]", "value": 11.7, "unit": "%"},
      {"measurement": "viability, T/C", "setting": "[12]", "value": 0.68, "unit": "%"},
      {"measurement": "viability, T/C", "setting": "[13]", "value": 97.7, "unit": "%"},
      {"measurement": "viability, T/C", "setting": "[14]", "value": 83.2, "unit": "%"},
      {"measurement": "viability, T/C", "setting": "[15]", "value": 75.2, "unit": "%"},
      {"measurement": "viability, T/C", "setting": "[16]", "value": 43.8, "unit": "%"},
      {"measurement": "viability, T/C", "setting": "[17]", "value": 11.4, "unit": "%"},
      {"measurement": "viability, T/C", "setting": "[18]", "value": 1.03, "unit": "%"},
      {"measurement": "viability, T/C", "setting": "[19]", "value": 105, "unit": "%"},
      {"measurement": "viability, T/C", "setting": "[20]", "value": 89.8, "unit": "%"},
      {"measurement": "viability, T/C", "setting": "[21]", "value": 61.7, "unit": "%"},
      {"measurement": "viability, T/C", "setting": "[22]", "value": 48.6, "unit": "%"},
      {"measurement": "viability, T/C", "setting": "[23]", "value": 12, "unit": "%"},
      {"measurement": "viability, T/C", "setting": "[24]", "value": 0.75, "unit": "%"},
      {"measurement": "viability, T/C", "setting": "[25]", "value": 100, "unit": "%"},
      {"measurement": "viability, T/C", "setting": "[26]", "value": 74.8, "unit": "%"},
      {"measurement": "viability, T/C", "setting": "[27]", "value": 68.8, "unit": "%"},
      {"measurement": "viability, T/C", "setting": "[28]", "value": 38.9, "unit": "%"},
      {"measurement": "viability, T/C", "setting": "[29]", "value": 8.88, "unit": "%"},
      {"measurement": "viability, T/C", "setting": "[30]", "value": 0.51, "unit": "%"},
      {"measurement": "viability, T/C", "setting": "[31]", "value": 102, "unit": "%"},
      {"measurement": "viability, T/C", "setting": "[32]", "value": 74.6, "unit": "%"},
      {"measurement": "viability, T/C", "setting": "[33]", "value": 59.9, "unit": "%"},
      {"measurement": "viability, T/C", "setting": "[34]", "value": 19.8, "unit": "%"},
      {"measurement": "viability, T/C", "setting": "[35]", "value": 0.75, "unit": "%"},
      {"measurement": "viability, T/C", "setting": "[36]", "value": 0.31, "unit": "%"}
    ]}
  ]
}
